System: skin
Assay: Affymetrix microarray of skin, DBP-4 hr and analogs vs. untreated; gene selection by log-2 fold change, Wilcoxon, Kendall tau (Tables 8, 9)
Type: in vivo, mouse
Conditions: mouse, in vivo

With `CCCCOC(=O)c1ccccc1C(=O)OCCCC` [DBP, dibutylphthalate] the “Nrap NM_198059_at ≧2-Fold change” value was “No”, the “Nusap1 NM_133851_at ≧2-Fold change” value was “No” and the “Ogfrl1 NM_001081079_at ≧2-Fold change” value was “No”. For the same compound, the “Olr1 NM_138648_at ≧2-Fold change” value was “No”, the “Otud7a (NM_130880_at) ≧2-Fold change” value was “Yes” and the “Oxr1 NM_001130163_at ≧2-Fold change” value was “No”. For the same compound, the “Oxr1 NM_001130164_at ≧2-Fold change” value was “No”, the “Oxr1 NM_001130165_at ≧2-Fold change” value was “No” and the “Oxr1 NM_001130166_at ≧2-Fold change” value was “No”. For the same compound, the “Pde4b (NM_019840_at) ≧2-Fold change” value was “Yes”, the “Pdk4 (NM_013743_at) ≧2-Fold change” value was “Yes” and the “Pgam2 NM_018870_at ≧2-Fold change” value was “No”. For the same compound, the “Pigyl NM_001082532_at ≧2-Fold change” value was “No”, the “Plaur (NM_011113_at) ≧2-Fold change” value was “Yes” and the “Plek (NM_019549_at) ≧2-Fold change” value was “Yes”. The “Plscr1 (NM_011636_at) ≧2-Fold change” value was “Yes”, the “Pmaip1 (NM_021451_at) ≧2-Fold change” value was “Yes” and the “Pparg NM_001127330_at ≧2-Fold change” value was “No”. The “Ppih NM_001110129_at ≧2-Fold change” value was “No”, the “Prg4 NM_021400_at ≧2-Fold change” value was “No” and the “Prss22 (NM_133731_at) ≧2-Fold change” value was “Yes”. For the same compound, the “Ptges (NM_022415_at) ≧2-Fold change” value was “Yes”, the “Pyy (NM_145435_at) ≧2-Fold change” value was “Yes” and the “Rab20 (NM_011227_at) ≧2-Fold change” value was “Yes”. For the same compound, the “Ramp3 (NM_019511_at) ≧2-Fold change” value was “Yes”, the “Retnla NM_020509_at ≧2-Fold change” value was “No” and the “Rffl NM_001007465_at ≧2-Fold change” value was “No”. The “Rgs1 (NM_015811_at) ≧2-Fold change” value was “Yes”, the “Rn18s NR_003278_at ≧2-Fold change” value was “No” and the “Rnf19b (NM_029219_at) ≧2-Fold change” value was “Yes”. For the same compound, the “Rpl3l NM_025425_at ≧2-Fold change” value was “No”, the “Saa3 (NM_011315_at) ≧2-Fold change” value was “Yes” and the “Slc5a1 (NM_019810_at) ≧2-Fold change” value was “Yes”. The “Slc7a5 (NM_011404_at) ≧2-Fold change” value was “Yes”, the “Slc10a6 (NM_029415_at) ≧2-Fold change” value was “Yes” and the “Slc15a3 (NM_023044_at) ≧2-Fold change” value was “Yes”. The “Slc25a25 (NM_146118_at) ≧2-Fold change” value was “Yes”, the “Slc34a2 (NM_011402_at) ≧2-Fold change” value was “Yes” and the “Slc39a8 (NM_026228_at) ≧2-Fold change” value was “Yes”. The “Slc39a14 NM_001135151_at ≧2-Fold change” value was “No”, the “Slfn2 (NM_011408_at) ≧2-Fold change” value was “Yes” and the “Slfn4 (NM_011410_at) ≧2-Fold change” value was “Yes”. For the same compound, the “Sln NM_025540_at ≧2-Fold change” value was “No”, the “Slpi (NM_011414_at) ≧2-Fold change” value was “Yes” and the “Smox (NM_145533_at) ≧2-Fold change” value was “Yes”. The “Smpx NM_025357_at ≧2-Fold change” value was “No”, the “Stfa3 (NM_025288_at) ≧2-Fold change” value was “Yes” and the “Timp1 (NM_011593_at) ≧2-Fold change” value was “Yes”. The “Tlr2 (NM_011905_at) ≧2-Fold change” value was “Yes”, the “Tnf (NM_013693_at) ≧2-Fold change” value was “Yes” and the “Tnfrsf9 NM_001077508_at ≧2-Fold change” value was “No”. For the same compound, the “Tnfrsf9 NM_001077509_at ≧2-Fold change” value was “No”, the “Tnfrsf12a (NM_013749_at) ≧2-Fold change” value was “Yes” and the “Tnni1 NM_021467_at ≧2-Fold change” value was “No”. The “Trdn NM_029726_at ≧2-Fold change” value was “No”, the “Trf NM_133977_at ≧2-Fold change” value was “No” and the “Trp63 NM_001127259_at ≧2-Fold change” value was “No”. The “Trp63 NM_001127260_at ≧2-Fold change” value was “No”, the “Trp63 NM_001127262_at ≧2-Fold change” value was “No” and the “Trp63 NM_001127264_at ≧2-Fold change” value was “No”. For the same compound, the “Tslp (NM_021367_at) ≧2-Fold change” value was “Yes”, the “Tslp (NR_033206_at) ≧2-Fold change” value was “Yes” and the “Ttn NM_028004_at ≧2-Fold change” value was “No”. The “Tubb6 (NM_026473_at) ≧2-Fold change” value was “Yes”, the “Uap1 (NM_133806_at) ≧2-Fold change” value was “Yes” and the “Wbp1 NM_001083922_at ≧2-Fold change” value was “No”. The “Wbp1 NM_001083923_at ≧2-Fold change” value was “No”, the “Wfdc2 NM_026323_at ≧2-Fold change” value was “No” and the “Zc3h12a (NM_153159_at) ≧2-Fold change” value was “Yes”. For the same compound, the “Zfp36 (NM_011756_at) ≧2-Fold change” value was “Yes”, the “Zfp68 NM_001044747_at ≧2-Fold change” value was “No” and the “Zfp187 NM_001013786_at ≧2-Fold change” value was “No”. The “Zfp518b NM_001081144_at ≧2-Fold change” value was “No”, the “Zfp593 (NM_024215_at) ≧2-Fold change” value was “Yes” and the “Zfp943 NM_001025373_at ≧2-Fold change” value was “No”. For the same compound, the “≧2-Fold change” value was “No and Yes”, the “≧2-Fold change: 1810046J19Rik” value was “No” and the “≧2-Fold change: 4933434E20Rik” value was “No”. The “≧2-Fold change: Abhd6” value was “No”, the “≧2-Fold change: Acad8” value was “No” and the “≧2-Fold change: Ak2” value was “No”. For the same compound, the “≧2-Fold change: Akr1e1” value was “No”, the “≧2-Fold change: Avpr1a” value was “No” and the “≧2-Fold change: B4galt1” value was “No”. The “≧2-Fold change: Bphl” value was “No”, the “≧2-Fold change: Cdkl2” value was “No” and the “≧2-Fold change: Cep70” value was “No”. For the same compound, the “≧2-Fold change: Cirh1a” value was “No”, the “≧2-Fold change: Clec14a” value was “No” and the “≧2-Fold change: Commd4” value was “No”. The “≧2-Fold change: Cr1l” value was “No”, the “≧2-Fold change: Cyth1” value was “No” and the “≧2-Fold change: D16Ertd472e” value was “No”. The “≧2-Fold change: Dcxr” value was “No”, the “≧2-Fold change: Dda1” value was “No” and the “≧2-Fold change: Diablo” value was “No”. For the same compound, the “≧2-Fold change: Dmap1” value was “No”, the “≧2-Fold change: Dnajc4” value was “No” and the “≧2-Fold change: Eid1” value was “No”. For the same compound, the “≧2-Fold change: Eif6” value was “No”, the “≧2-Fold change: Erlec1” value was “No” and the “≧2-Fold change: Fam134b” value was “No”. The “≧2-Fold change: Fbxo25” value was “No”, the “≧2-Fold change: Fgf13” value was “No” and the “≧2-Fold change: Flt1” value was “No”. For the same compound, the “≧2-Fold change: Fmo5” value was “No”, the “≧2-Fold change: Ftsj3” value was “No” and the “≧2-Fold change: Gcnt2” value was “No”. The “≧2-Fold change: Gmcl1” value was “No”, the “≧2-Fold change: Gpn3” value was “No” and the “≧2-Fold change: Gstz1” value was “No”. The “≧2-Fold change: Gtf2h2” value was “No”, the “≧2-Fold change: Gtf3a” value was “No” and the “≧2-Fold change: Hsdl2” value was “No”. The “≧2-Fold change: Icos” value was “No”, the “≧2-Fold change: Ifngr1” value was “No” and the “≧2-Fold change: Inpp5d” value was “No”. For the same compound, the “≧2-Fold change: Itgax” value was “No”, the “≧2-Fold change: Itk” value was “No” and the “≧2-Fold change: Krt17” value was “No”. For the same compound, the “≧2-Fold change: Map3k14” value was “No”, the “≧2-Fold change: Mdp1” value was “No” and the “≧2-Fold change: Meis1” value was “No”. For the same compound, the “≧2-Fold change: Mkrn3” value was “No”, the “≧2-Fold change: Mtcp1” value was “No” and the “≧2-Fold change: Mum1” value was “No”. The “≧2-Fold change: Myd88” value was “No”, the “≧2-Fold change: Nagk” value was “No” and the “≧2-Fold change: Ndufaf3” value was “No”. For the same compound, the “≧2-Fold change: Nek3” value was “No”, the “≧2-Fold change: Nfkb2” value was “No” and the “≧2-Fold change: Nicn1” value was “No”. For the same compound, the “≧2-Fold change: Nme3” value was “No”, the “≧2-Fold change: Ntpcr” value was “No” and the “≧2-Fold change: Orc3” value was “No”. The “≧2-Fold change: Padi1” value was “No”, the “≧2-Fold change: Panx1” value was “No” and the “≧2-Fold change: Pfdn2” value was “No”. The “≧2-Fold change: Phtf1” value was “No”, the “≧2-Fold change: Pigp” value was “No” and the “≧2-Fold change: Pkp4” value was “No”. The “≧2-Fold change: Plk3” value was “No”, the “≧2-Fold change: Polr2g” value was “No” and the “≧2-Fold change: Pparg” value was “No”. The “≧2-Fold change: Ppp1r7” value was “No”, the “≧2-Fold change: Prokr1” value was “No” and the “≧2-Fold change: Ptpn1” value was “No”. For the same compound, the “≧2-Fold change: Rabgef1” value was “No”, the “≧2-Fold change: Rai12” value was “No” and the “≧2-Fold change: Rbbp6” value was “No”. The “≧2-Fold change: Rpl7l1” value was “No”, the “≧2-Fold change: Sema4d” value was “No” and the “≧2-Fold change: Siae” value was “No”. The “≧2-Fold change: Sirt1” value was “No”, the “≧2-Fold change: Slc9a3r1” value was “No” and the “≧2-Fold change: Slc30a4” value was “No”. For the same compound, the “≧2-Fold change: Slc35a1” value was “No”, the “≧2-Fold change: Smarcb1” value was “No” and the “≧2-Fold change: Srsf6” value was “No”. For the same compound, the “≧2-Fold change: Stx17” value was “No”, the “≧2-Fold change: Tmed1” value was “No” and the “≧2-Fold change: Tmem208” value was “No”. For the same compound, the “≧2-Fold change: Tnfrsf1a” value was “No”, the “≧2-Fold change: Tnfrsf9” value was “No” and the “≧2-Fold change: Trappc2l” value was “No”. The “≧2-Fold change: Tril” value was “No”, the “≧2-Fold change: Trim12a” value was “No” and the “≧2-Fold change: Trip4” value was “No”. For the same compound, the “≧2-Fold change: Trp63” value was “No”, the “≧2-Fold change: Trpv2” value was “No” and the “≧2-Fold change: Tsn” value was “No”. The “≧2-Fold change: Ufc1” value was “No”, the “≧2-Fold change: Ulk2” value was “No” and the “≧2-Fold change: Wbp1” value was “No”. For the same compound, the “≧2-Fold change: Zfp68” value was “No”, the “≧2-Fold change: Zfp90” value was “No” and the “≧2-Fold change: Zkscan3” value was “No”. For the same compound, the “≧2-Fold change: Zkscan6” value was “No”.

— patent US20150307938A1, “METHOD TO IDENTIFY A NOVEL CLASS OF IMMUNOLOGIC ADJUVANTS” (Lancell, L.L.C., priority 2011, published 2015)
